Legend:
[1] = test system: ILC2 population in human PBMC; experiment: ILC2 cell population in human PBMC culture (flow cytometry); format: cell-based; parameters: key: −: no inhibition; +: weak; ++: moderate; +++: strong inhibition; details: IL-2 (10 unit/mL) and three alarmins (10 ng/ml), 5 days
Source text: (§1) While alarmins are known to work in concert to enhance ILC2 and Th2 cell functions such as increase in cell population, steroids such as Dexamethasone (Dex) can negate these effects, resulting in the mitigation of type 2 immune responses [Jia, Yi et al. American Journal Of Respiratory Cell And Molecular Biology, vol. 55, 5 (2016): 675-683]. ILC2 and Th2 cell population can be determined by flow cytometry (BD FACSVerse) following standard procedures known to those skilled in the art.

[2] = test system: Th2 cell population in human PBMC; experiment: Th2 cell population in human PBMC culture (flow cytometry); format: cell-based; parameters: key: −: no inhibition; +: weak; ++: moderate; +++: strong inhibition; details: IL-2 (10 unit/mL) and three alarmins (10 ng/ml), 5 days
Source text: as §1

[3] = patients who discontinued ICS and LABA, 12 weeks; placebo 41%; cited from earlier work

| Compound | Cell proliferation inhibition, ILC2 [1] | Cell proliferation inhibition, Th2 [2] | rate of loss of asthma control [3] [%] |
| --- | --- | --- | --- |
| C[C@@H]1C[C@H]2[C@@H]3CCC4=CC(=O)C=C[C@]4(C)[C@@]3(F)[C@@H](O)C[C@]2(C)[C@@]1(O)C(=O)CO [Dex, Dexamethasone, reference compound] | + | +++ | – |
| Dupilumab: anti-IL-4Ra antibody inhibiting both IL-4 and IL-13 responses [reference compound] | – | – | 19 |

From patent publication US20240409647A1, “BISPECIFIC BINDING PROTEINS AGAINST ALARMINS AND USES THEREOF” (SINOMAB BIOSCIENCE LIMITED, priority 2022, published 2024)
